Reference: ChEMBL document CHEMBL5154827, “Discovery of S-217622, a Noncovalent Oral SARS-CoV-2 3CL Protease Inhibitor Clinical Candidate for Treating COVID-19” (J Med Chem, 2022)

Legend:
[1] = system: SARS-CoV-2; assay: In vivo antiviral activity against SARS CoV-2 Gamma strain (hCoV-19/Japan/TY7-501/202) harbouring spike protein K417T mutant intranasally inoculated in BALB/c mouse assessed as reduction in lung intrapulmonary viral titer administered orally immediately after viral infection and 12 hrs after infection measured after 24 hrs of post infection; type: functional, organism-based; conditions: Severe acute respiratory syndrome coronavirus 2, route po, DDE = dose-dependent effect
[2] = system: SARS-CoV-2; assay: In vivo antiviral activity against SARS CoV-2 gamma strain (hCoV-19/Japan/TY7-501/202) harbouring spike protein K417T mutant intranasally inoculated in BALB/c mouse assessed as reduction in lung intrapulmonary viral titer at 16 to 32 mg/kg, po immediately after viral infection and 12 hrs after viral infection measured after 24 hrs of post infection; type: functional, Severe acute respiratory syndrome coronavirus 2; conditions: dose 16-32 mg/kg

Question: Which results are given for `Cn1cnc(Cn2c(=O)[nH]/c(=N\c3cc4cn(C)nc4cc3Cl)n(Cc3cc(F)c(F)cc3F)c2=O)n1`?
Answer: Activity [1]: Dde; TCID50 [2]: 1.8 log10/ml
